Experimental data as given in patent US12570639B2, “Tetrahydroquinoline derivative and medicinal use thereof” (Toray Industries, Inc., priority 2020, dated 2026).

What was measured:
[1] = In vitro radical scavenging action (DPPH method); settings: 30 minutes at room temperature, maximum concentration 100 μmol/L
Protocol: Radical scavenging action was evaluated using the DPPH method in the compound of Comparative Example 1, which is a tetrahydroquinoxaline derivative, and in the tetrahydroquinoline derivative (I) or a pharmaceutically acceptable salt thereof. The DPPH method was performed using an antioxidant capacity measurement kit (Dojindo Laboratories).
A test compound was dissolved in DMSO, and the resulting solution was then mixed with an assay buffer and a DPPH solution, which are included in the kit, to a total volume of 200 μL to obtain a final concentration of 10% DMSO, and the reaction was allowed to proceed. Wells added with 100 μmol/L ferrostatin-1, a radical scavenger, were grouped as “control,” and wells added with not test compound were grouped as “background.” The test compound was serially diluted 3-fold starting from a maximum concentration of 100 μmol/L, and the diluted test compound (1.2, 3.7, 11.1, 33.3, or 100 μmol/L) was added and allowed to react at room temperature. Thirty minutes after the reaction, the absorbance at 517 nm was measured, and the average absorbance value was calculated (N=2). The radical scavenging action of the test compound (hereinafter referred to as radical scavenging rate, %) was calculated based on the equation 2 below. The EC50 value of the test compound was calculated from the radical scavenging rate. Radical scavenging rate (%)=[1−{(Average absorbance value at 517 nm measured when a test compound is added)−(Average absorbance value at 517 nm measured in the background)}/{(Average absorbance value at 517 nm measured in the control)−(Average absorbance value at 517 nm measured in the background)}]×100 Equation 2
A note “no detection of radical scavenging action (N.D.),” is given to compounds with a EC50 of >100 μmol/L.

[2] = tested on: Human fibrosarcoma cells (HT-1080 cells); test: In vitro inhibitory action against ferroptosis (Erastin-induced cell death, Cell Counting Kit-8); format: cell-based; settings: Erastin 3 μmol/L, 24 hours
Protocol: The inhibitory action against ferroptosis of the tetrahydroquinoline derivative (I) or a pharmaceutically acceptable salt thereof was evaluated with Human fibrosarcoma cells (HT-1080 cells), by using, as an index, the inhibitory action against the cell death induced by treatment with a ferroptosis inducer, Erastin.
HT-1080 cells (ATCC) were cultured in a mixture (hereinafter referred to as vehicle) composed of DMEM/F12 (Thermo Fisher Scientific, Inc.), a final concentration of 10% fetal bovine serum (Thermo Fisher Scientific, Inc.), and a final concentration of 1% penicillin-streptomycin solution (Nacalai Tesque, Inc.). Cells were seeded into 96-well plates (Corning Inc.) at 5×10^4 cells/well and cultured overnight.
A test compound was dissolved in DMSO, and the resulting solution was diluted in the vehicle to a final concentration of 1% DMSO and then used. […] Thirty minutes after the addition of the test compound, Erastin (Cayman Chemical Co.) diluted in the vehicle at a final concentration of 3 μmol/L was added to wells. The wells added with the test compound and Erastin were grouped as “test compound,” and the wells added with no test compound and no Erastin were grouped as “background,” and the wells added with no test compound but with Erastin were grouped as “control.” Twenty-four hours after the addition of Erastin, 5 μL of Cell Counting Kit-8 (Dojindo Laboratories) was added to each well and incubated for 4 hours, and the absorbance at 450 nm was then measured for each well (N=2). […] Ferroptosis inhibition rate (%)=[1−{(Average absorbance value at 450 nm measured when a test compound is added)−(Average absorbance value at 450 nm measured in the background)}/{(Average absorbance value at 450 nm measured in the control)−(Average absorbance value at 450 nm measured in the background)}]×100 Equation 1

[3] = evaluation concentration 30 μmol/L
[4] = evaluation concentration 50 μmol/L

SMILES | EC50 [1] | Radical-scavenging action EC50 (μmol/L) [1] | Ferroptosis inhibition rate (%) [2, 3] | Ferroptosis inhibition rate (%) [2, 4]
c1ccc(C2CNc3ccccc3N2)cc1 (centres unmarked) [Comparative Example 1, 2-phenyl-1,2,3,4-tetrahydroquinoxaline, reference compound] | 8.54 µM | exhibited radical scavenging action |  | 
c1ccc([C@H]2CCc3ccccc3N2)cc1 [Example 2, (R)-2-phenyl-1,2,3,4-tetrahydroquinoline] | > 100 µM |  | 117.4% | 
c1ccc([C@@H]2CCc3ccccc3N2)cc1 [Example 3, (S)-2-phenyl-1,2,3,4-tetrahydroquinoline] | > 100 µM |  | 110.2% | 
CS(=O)(=O)c1ccc(C2CCc3ccccc3N2)cc1 (centres unmarked) [Example 16, 2-(4-(methylsulfonyl)phenyl)-1,2,3,4-tetrahydroquinoline] | > 100 µM |  |  | 90.31%
CC(=O)Nc1ccc(C2CCc3ccccc3N2)cc1 (centres unmarked) [Example 21, N-(4-(1,2,3,4-tetrahydroquinolin-2-yl)phenyl)acetamide] | > 100 µM |  | 88.33% | 
Fc1ccc(C2CCc3ccccc3N2)cc1 (centres unmarked) [Example 26, 2-(4-fluorophenyl)-1,2,3,4-tetrahydroquinoline] | > 100 µM |  |  | 107.7%
FC(F)(F)c1ccc(C2CCc3ccccc3N2)cc1 (centres unmarked) [Example 29, 2-(4-(trifluoromethyl)phenyl)-1,2,3,4-tetrahydroquinoline] | > 100 µM |  |  | 95.38%
FC(F)(F)Oc1ccc(C2CCc3ccccc3N2)cc1 (centres unmarked) [Example 31, 2-(4-(trifluoromethoxy)phenyl)-1,2,3,4-tetrahydroquinoline] | > 100 µM |  |  | 98.99%
NS(=O)(=O)c1ccc(C2CCc3ccccc3N2)cc1 (centres unmarked) [Example 34, 4-(1,2,3,4-tetrahydroquinolin-2-yl)benzenesulfonamide] | > 100 µM |  | 86.96% | 
N#Cc1ccc(C2CCc3ccccc3N2)cc1 (centres unmarked) [Example 35, 4-(1,2,3,4-tetrahydroquinolin-2-yl)benzonitrile] | > 100 µM |  | 106.5% | 
NC(=O)c1ccc(C2CCc3ccccc3N2)cc1 (centres unmarked) [Example 37, 4-(1,2,3,4-tetrahydroquinolin-2-yl)benzamide] | > 100 µM |  | 98.69% | 
OCc1ccc2c(c1)CCC(c1ccccc1)N2 (centres unmarked) [Example 58, (2-phenyl-1,2,3,4-tetrahydroquinolin-6-yl)methanol] | > 100 µM |  | 91.37% | 
NC(=O)Cc1ccc2c(c1)CCC(c1ccccc1)N2 (centres unmarked) [Example 60, 2-(2-phenyl-1,2,3,4-tetrahydroquinolin-6-yl)acetamide] | > 100 µM |  | 98.74% | 
CC(C)(C)NC(=O)Cc1ccc2c(c1)CCC(c1ccccc1)N2 (centres unmarked) [Example 61, N-(tert-butyl)-2-(2-phenyl-1,2,3,4-tetrahydroquinolin-6-yl)acetamide] | > 100 µM |  | 103.9% | 
O=C(Cc1ccc2c(c1)CCC(c1ccccc1)N2)N1CC(O)C1 (centres unmarked) [Example 62, 1-(3-hydroxyazetidin-1-yl)-2-(2-phenyl-1,2,3,4-tetrahydroquinolin-6-yl)ethan-1-one] | > 100 µM |  | 103.2% | 
Fc1cccc2c1CCC(c1ccccc1)N2 (centres unmarked) [Example 66, 5-fluoro-2-phenyl-1,2,3,4-tetrahydroquinoline] | > 100 µM |  | 101.5% | 
Clc1cccc2c1CCC(c1ccccc1)N2 (centres unmarked) [Example 67, 5-chloro-2-phenyl-1,2,3,4-tetrahydroquinoline] | > 100 µM |  | 102.4% | 
Fc1ccc2c(c1)NC(c1ccccc1)CC2 (centres unmarked) [Example 68, 7-fluoro-2-phenyl-1,2,3,4-tetrahydroquinoline] | > 100 µM |  | 101.9% | 

SMILES | EC50 [1] | Radical-scavenging action EC50 (μmol/L) [1] | Ferroptosis inhibition rate (%) [2, 3] | Ferroptosis inhibition rate (%) [2, 4]
Clc1ccc2c(c1)NC(c1ccccc1)CC2 (centres unmarked) [Example 69, 7-chloro-2-phenyl-1,2,3,4-tetrahydroquinoline] | > 100 µM |  | 106.4% | 
FC(F)(F)Oc1ccc2c(c1)CCC(c1ccccc1)N2 (centres unmarked) [Example 81, 2-phenyl-6-(trifluoromethoxy)-1,2,3,4-tetrahydroquinoline] | > 100 µM |  |  | 103.9%
Fc1ccc2c(c1)CCC(c1ccccc1)N2 (centres unmarked) [Example 82, 6-fluoro-2-phenyl-1,2,3,4-tetrahydroquinoline] | > 100 µM |  | 112.6% | 
Clc1ccc2c(c1)CCC(c1ccccc1)N2 (centres unmarked) [Example 83, 6-chloro-2-phenyl-1,2,3,4-tetrahydroquinoline] | > 100 µM |  |  | 103.8%
Fc1cc2c(cc1F)NC(c1ccccc1)CC2 (centres unmarked) [Example 85, 6,7-difluoro-2-phenyl-1,2,3,4-tetrahydroquinoline] | > 100 µM |  |  | 94.94%
O=C(Cc1ccc2c(c1)CCC(c1ccccc1)N2)NCC1CC1 (centres unmarked) [Example 153, N-(cyclopropylmethyl)-2-(2-phenyl-1,2,3,4-tetrahydroquin-olin-6-yl)acetamide] |  |  | 110.1% | 
O=C(Cc1ccc2c(c1)CCC(c1ccccc1)N2)NCC1COC1 (centres unmarked) [Example 154, N-(oxetan-3-ylmethyl)-2-(2-phenyl-1,2,3,4-tetrahydroquin-olin-6-yl)acetamide] |  |  | 114.6% | 
O=C(Cc1ccc2c(c1)CCC(c1ccccc1)N2)N1CCCC1 (centres unmarked) [Example 156, 2-(2-phenyl-1,2,3,4-tetrahydroquinolin-6-yl)-1-(pyrrolidin-1-yl)ethan-1-one] |  |  | 57.76% | 
CNC(=O)Cc1ccc2c(c1)CCC(c1ccccc1)N2 (centres unmarked) [Example 159, N-methyl-2-(2-phenyl-1,2,3,4-tetrahydroquinolin-6-yl)acetamide] |  |  | 76.27% | 
c1ccc(C2CNc3ccccc3C2)cc1 (centres unmarked) [Example 162, 3-phenyl-1,2,3,4-tetrahydroquinoline] |  |  |  | 108.4%
Clc1ccc2c(c1)CC(c1ccccc1)CN2 (centres unmarked) [Example 163, 6-chloro-3-phenyl-1,2,3,4-tetrahydroquinoline] |  |  | 89.32% | 
Clc1ccc2c(c1)NCC(c1ccccc1)C2 (centres unmarked) [Example 164, 7-chloro-3-phenyl-1,2,3,4-tetrahydroquinoline] |  |  | 72.33% | 
OCc1ccc(C2CNc3ccccc3C2)cc1 (centres unmarked) [Example 165, (4-(1,2,3,4-tetrahydroquinolin-3-yl)phenyl)methanol] |  |  | 96.77% | 
NC(=O)c1ccc(C2CNc3ccccc3C2)cc1 (centres unmarked) [Example 166, 4-(1,2,3,4-tetrahydroquinolin-3-yl)benzamide] |  |  | 96.52% | 
NS(=O)(=O)c1ccc(C2CNc3ccccc3C2)cc1 (centres unmarked) [Example 167, 4-(1,2,3,4-tetrahydroquinolin-3-yl)benzenesulfonamide] |  |  | 76.82% | 
CC(=O)Nc1ccc(C2CNc3ccccc3C2)cc1 (centres unmarked) [Example 168, N-(4-(1,2,3,4-tetrahydroquinolin-3-yl)phenyl)acetamide] |  |  | 86.46% | 
CS(=O)(=O)c1ccc(C2CNc3ccccc3C2)cc1 (centres unmarked) [Example 169, 3-(4-(methylsulfonyl)phenyl)-1,2,3,4-tetrahydroquinoline] |  |  | 85.58% | 
c1cncc(C2CNc3ccccc3C2)c1 (centres unmarked) [Example 170, 3-(pyridin-3-yl)-1,2,3,4-tetrahydroquinoline] |  |  | 93.41% | 
